Test results from a melting point compilation (Tetko et al.; mined from patent text by program, amines drawn as free bases though some values may be those of a salt).

Point of comparison: `O=c1nc(-c2cccc(Br)c2)sc2ccccc12`, melting point 162 °C. Against it:
- Cc1cc(CO)oc1CN(C)C — lower, 104 to 106 °C
- CC(C)c1cc(C(C)C)c(C=CC(=O)c2ccc(C(C)C)c(OS(N)(=O)=O)c2C(C)C)c(C(C)C)c1 — lower, 144 to 148 °C
- CN1CC=C(c2c[nH]c3ccc(Sc4ccccc4)cc23)CC1 — higher, 225 to 228 °C
- Clc1ccccc1-c1nn2cc(-c3ccccc3)nc2s1 — lower, 126 °C
- O=C(Nc1ccc2ccc(Oc3ccc(Cl)cc3)nc2n1)c1ccccc1 — lower, 148 °C
- COC(=O)C1(Cc2c[nH]c3ccccc23)CC(N=[N+]=[N-])C(=O)O1 (stereo unspecified) — lower, 110 to 112 °C
- CCCc1cccc(N2CC(=O)NC(=O)N2)c1 — higher, 188 to 190 °C
- Cc1ccc(=NC#N)n(-c2cccc(C(F)(F)F)c2)c1 — higher, 165 °C
- COC(=O)c1ccc2c(Br)nn(C)c2c1 — lower, 122 to 125 °C
- CC(C)(C)OC(=O)N1CCC[C@@H](Nc2nccc(-c3c(-c4cccc(C#N)c4)nc4sccn34)n2)C1 — lower, 108 to 110 °C
- O=C(NCc1ccccn1)Nc1cc(N2CC(COc3ccccc3)CC2=O)ccn1 (stereo unspecified) — lower, 135 to 137 °C
- CNC(=O)N1CC(Oc2ccc(Cl)c(Cl)c2)C1 — lower, 158 to 159 °C
- Cc1nnc2sc3cc(Cl)ccc3n12 — higher, 186 to 188 °C
- CC(=O)CSc1nc2ccccc2cc1-c1ccccc1 — lower, 88 to 90 °C
- ClC(Cl)=CCOc1cc(Cl)c(OCCCCOc2ccc(Cl)cc2)c(Cl)c1 — lower, 54.5 °C
- CN(C(=O)CSc1nccc(-c2ccccn2)n1)c1ccc(Cl)cc1 — lower, 142 °C
- CN(C)C=CC(=O)c1cccnc1 — lower, 66 to 67 °C
- COC(=O)CCCc1cc2nc(Cl)ccc2n1S(=O)(=O)c1ccc2nc(NC(C)=O)sc2c1 — higher, 274 °C
- CCCNC(=S)NCCCn1c(CCOC)nc2c(N)nc3ccccc3c21 — higher, 172 to 173 °C
- CCn1c(C(F)(F)F)nn(-c2cc(N)c(C(N)=S)cc2F)c1=O — lower, 161 °C
- CON=C(C)C(C)=NOc1ncccc1N(OC)C(=O)OC — lower, 86 to 88 °C
- Cn1c(=O)n(O)c(=O)c2cc(F)c(F)cc21 — higher, 239 to 241 °C
- CNc1nc(-c2ccccc2)c(-c2nc3ccccc3c(=O)n2-c2ccccc2OC)s1 — higher, 241 to 243 °C
- Cc1cc(O)ccc1-n1cc(C(=O)O)c(=O)cc1C1CCCCCCC1 — lower, 118 to 120 °C
- Cc1ncc(CO)c2c1OC(C(F)(F)F)C(C(=O)O)=C2 (stereo unspecified) — lower, 76.1 to 80.1 °C
- COc1ccc(Oc2ccc(OC(=O)N3CCC(C)CC3)cc2)cc1 — lower, 81 to 84 °C
- O=C(O)COc1cccc2c1Cc1sc(SCCC(c3ccccc3)c3ccccc3)nc1-2 — lower, 100 to 103 °C
- CCn1ncc2c1ncc1c(=O)n3nccc3n(CCC(C)C)c12 — higher, 167 to 168 °C
- CC(=O)OCC(=O)C1(O)C(C)CC2C3CCC4=CC(=O)C=CC4(C)C34OC4CC21C (stereo unspecified) — higher, 180 to 186 °C
- O=C(O)COc1nc(F)c(Cl)cc1Cl — lower, 140 to 144 °C
- COC(=O)C1(OC)CC(C)C(=O)C=C1O (stereo unspecified) — lower, 117 to 118 °C
- O=C(Nc1cccc(-c2cccc(-n3c(=O)c(Cc4cccnc4)nc4cccnc43)c2)c1)C(F)(F)F — lower, 138 to 144 °C
- Cn1ncc2c1-c1c(Oc3ncccn3)sc(C(=O)O)c1CC2 — higher, 256 to 258 °C
- CC(C)c1cc(C(C)C)c(CC(=O)c2ccc(-c3ccccc3)c(OS(N)(=O)=O)c2-c2ccccc2)c(C(C)C)c1 — lower, 129 to 132 °C
- CN(C)Cc1nc(-c2ncn3c2[C@@H]2CCN2C(=O)c2cc(F)ccc2-3)no1 — lower, 150 to 155 °C
- O=[N+]([O-])c1ccc(-c2ccsc2-c2ccc(F)cc2)cc1 — lower, 108 to 110 °C
- CNc1ccc(C2OC(C)(C)N=C2c2ccccc2)cc1 (stereo unspecified) — lower, 138 to 139 °C
- CCCCc1nn(-c2cc(NC(=O)CC)ccc2C(F)(F)F)c(=O)n1Cc1ccc(-c2ccccc2S(=O)(=O)NC(=O)OC(C)(C)C)cc1 — lower, 158 to 161 °C
- CCCCCCCCCCCCCCCCCCOCC(COC(c1ccccc1)(c1ccccc1)c1ccccc1)OC(=O)N1CCOCC1 (stereo unspecified) — lower, 78 to 79 °C
- CCOC(=O)COc1ccccc1Cn1c(-c2ccc(C(F)(F)F)cc2)c(C)c2cc(OCc3ccccc3)ccc21 — higher, 221 °C
- COc1cc2c(c3c1OC(C)(C)C3)C(c1ccn(CC(=O)Nc3cccnc3)c(=O)c1)=NC(C)(C)C2 — higher, 251 to 253 °C
- Cn1cc(/C=C/c2ccc3ccccc3n2)cc1C(=O)O — higher, > 230 °C
- O=C(O)CSCCCCc1cccc2cncn12 — lower, 124 to 126 °C
- CCCC(CCC)n1c(CC)nc2c1c(=O)n(C)c(=O)n2-c1c(OC)ccnc1C — lower, 124 to 126 °C
- CCC1(c2cn(Cc3ccc(Cl)cc3)cn2)Cc2ccccc2C1=O (stereo unspecified) — lower, 150 to 154 °C
- COc1ccc(-c2ccc3ccc(OC)cc3c2)cc1 — lower, 154 °C
- O=S(=O)(Cl)c1ccc(Cl)c(CCl)c1Cl — lower, 68 °C
- COc1ccc(-c2cc(OCc3ccccc3)c(=O)n(C)c2-c2ccncc2)cc1 — lower, 127 to 130 °C
- Cc1ccc2c(c1)c(N1CCN(C(=O)c3ccco3)CC1)c(C#N)c(=O)n2Cc1ccc(F)cc1 — higher, 276 °C
- O=C(c1ccc(F)cc1)C1CCN(S(=O)(=O)c2ccccc2)CC1 — lower, 106 to 109 °C
- O=C(NCCC1OCCO1)c1ccc[nH]1 — lower, 133 to 135 °C
- CC(C)(O)CCC[C@@](C)(CC#CC(O)(C(F)(F)F)C(F)(F)F)[C@H]1CC[C@H]2[C@@H](O)CCC[C@]12C — lower, 146 to 147 °C
- CN1C(CCCCCBr)Nc2cc(Cl)c(S(=O)(=O)NCc3ccccc3)cc2S1(=O)=O (stereo unspecified) — lower, 141 to 142 °C
- Nc1c(F)c(N2CC[C@@H](C3(NCCO)CC3)C2)c(F)c2c1c(=O)c(C(=O)O)cn2[C@@H]1C[C@@H]1F — higher, 198 to 200 °C
- O=C(O)c1ccc(-c2nnn[nH]2)nc1 — higher, 257 to 259 °C
- Oc1cccc([C@H]2CCCC[C@@H]2NCCc2ccccc2)c1 (racemic) — higher, 164 to 165 °C
- O=c1[nH]c2ccc(Br)cc2n1Cc1ccccc1 — higher, 245 to 246 °C
- O=C(Nc1cccc2c(=O)cc[nH]c12)c1c(Cl)cccc1Cl — higher, 342 °C
- N=C(N)Nc1nc(CSCCNC2=NS(=O)N=C2O)cs1 (stereo unspecified) — lower, 148 to 151 °C
- COC(C)=CC(=O)Nc1cccc(SC)c1 — lower, 70 to 71 °C
- O=C(CCl)CCCc1ccc(CCCC(=O)CCl)cc1 — lower, 70 to 71 °C
- N#Cc1nn(-c2c(Cl)cc(C(F)(F)F)cc2Cl)c(N)c1-c1onc(Br)c1Br — higher, 279 °C
- O=C(NC(=S)Nc1ccccc1-c1ccc(F)cc1)c1ccccc1 — lower, 123 to 124 °C
- CSc1nc(Cl)ncc1C — lower, 73 to 76 °C
- NC1=CN(Cc2ccc(Cl)cc2Cl)CN=C1 — lower, 104 to 105 °C
- O=C(O)c1cn(-c2ccc(F)cc2F)c2c(F)c(N3Cc4ccc(Br)cc4C3)c(F)cc2c1=O — higher, 251 to 257 °C
- COCCN(c1cccc2cc(C(=O)O)[nH]c12)S(=O)(=O)c1cccs1 — higher, 216 to 217 °C
- N#Cc1ccc(N2C(=O)CNC2=O)c2ccccc12 — higher, > 275 °C
- CC1=CC(N)(C(=O)NCCC(C)n2ccnc2)CC=C1 (stereo unspecified) — lower, 128 to 130 °C
- Cc1c(-c2ccncc2)[nH]c(-c2ccncc2)c1C(N)=O — higher, 212 to 215 °C
- CCCCNC(=O)NS(=O)(=O)c1ccccc1CCl — lower, 104 to 106 °C
- O=C(O)c1ccc(C(F)F)o1 — lower, 112 to 113 °C
- COc1cc([N+](=O)[O-])ccc1-c1cnc(C)s1 — lower, 114 to 117 °C
- CCCC(CCC)n1c(CC)nc2c1c(=O)n(C)c(=O)n2Cc1ccc(OC)cc1 — lower, 120 to 122 °C
- CCCCn1nc2c(N)nc3ncccc3c2c1CC(C)C — higher, 219 to 222 °C
- CC(C)c1ccc(NC(=O)Oc2ccc3c(c2)CCN3)cc1 — higher, 166 to 170 °C
- CCCCc1ccc(NC(N)=S)cc1 — lower, 123 to 125 °C
- CC(C)Cc1nc2c(N)nc3ccccc3c2s1 — lower, 123 to 125 °C
- C[C@]12CC/C(=C\F)C=C1CC[C@@H]1[C@@H]2CC[C@]2(C)C(=O)CC[C@@H]12 — lower, 101 to 102 °C
- O=C(c1ccc([N+](=O)[O-])c(OCC2CO2)c1)N1CCOCC1 (stereo unspecified) — lower, 156 to 158 °C
- CCCc1c(OCCCOc2ccc(C(C)=O)c(OCCCC(=O)O)c2CCC)ccc(C(C)=O)c1O — lower, 50 to 53 °C
- CCC1CC2=C(CO1)C(=O)c1ccccc1C2=O (stereo unspecified) — lower, 98 to 101 °C
- CC(C)Sc1cc(SC(C)C)c2ccc3c(SC(C)C)cc(SC(C)C)c4ccc1c2c43 — lower, 108 °C
- COC(=O)CCc1ccc(N2C(=O)CN(c3ccc(C#N)cc3)C2=O)cc1 — higher, 188 to 190 °C
- CC(C)NCC(O)COc1nccnc1Cl (stereo unspecified) — lower, 99 to 100 °C
- COc1cc(OC(C)C)cc2oc(Sc3ccc(O)cc3)cc(=O)c12 — higher, 263 to 265 °C
- CNc1nc(C)nc(N2CCCC(C)C2)n1 (stereo unspecified) — lower, 155 to 156 °C
- CCC1(CC)C(=O)N(C(C)(C)C)CC(C)(C)N1OC(C)c1ccc(CCl)cc1 (stereo unspecified) — lower, 66 to 68 °C
- O=C(O)Cc1nn(Cc2nc3cccc(Cl)c3s2)c(=O)c2ccccc12 — higher, 168 °C
- CC(C)c1nc(CCOC(N)=O)n(Cc2ccncc2)c1Sc1cc(Cl)cc(Cl)c1 — higher, 189 to 191 °C
- Cc1cccc(C)c1NC(=O)CN1CCN(Cc2ccccc2)CC1C(C)O (stereo unspecified) — lower, 149 °C
- CCCC(O)(CCC)c1ccc(Cl)c2nc3n(c12)CCCN3c1ccc(Cl)cc1C(F)(F)F — higher, 200 to 202 °C
- COc1cc(C2CCC(c3cc(OC)c(OC)c(OC)c3)O2)cc(OC)c1OC (stereo unspecified) — lower, 128 to 130 °C
- CCCn1cc(Cc2ccc(C(=O)O)cc2OC)c2cc(CC(C)C(=O)N3CCCC3)ccc21 (stereo unspecified) — lower, 92 to 100 °C
- COc1ccc(N=Nc2ccc(O)c(C(=O)Nc3ccc4[nH]nnc4c3)c2)cc1 — higher, 275 to 276 °C
- O=C(O)c1cnn2c(C(F)(F)F)cc(-c3ccc(F)c(F)c3)nc12 — higher, 274 °C
- CC(=O)Nc1cc(I)ccc1C(=O)O — higher, 229 to 232 °C
- Cc1nc2ccccc2n1CCc1ccccc1 — lower, 104 to 106 °C
- O=c1[nH]c(=O)n(C2CC(OCc3ccc(F)cc3)C(CO)O2)cc1F (stereo unspecified) — lower, 130 to 131 °C
- O=C(N1CCOCC1)N1Cc2c(-c3nc4ccccc4o3)ncn2-c2ccccc21 — higher, 288 to 290 °C
